According to patent US12616672B2, “Methods for assessing risk of cardiovascular disease and methods and compounds for use in treating or preventing cardiovascular disease” (Queen Mary University of London, priority 2017, dated 2026):

Tests used:
[1] = tested on: healthy volunteer peripheral blood neutrophils, monocytes and platelets; assay: Healthy volunteer whole blood incubated with RvDn-3 DPA then PAF, flow cytometry of activation markers; format: cell-based, human; details: 0.1, 1, 10 nM, 15 min then PAF 30 min
Protocol: Blood was collected from healthy volunteers and incubated with RvD2n-3 DPA, RvD5n-3 DPA (0.1 nM, 1 nM or 10 nM) or vehicle (PBS) for 15 min (37° C.) then with PAF (100 ng/ml; 30 min; 37° C.). Cell activation and leukocyte-platelet aggregates were assessed using flow cytometry. (A,B) Representative histograms depicting neutrophil (A) CD11b and (B) CD62P expression. (C,D) Cumulative neutrophil ([…]) CD11b and (D) CD62P expression. (E,F) Monocyte (E) CD11b and (F) CD62P expression. Results are mean of n=5 per time point and expressed as percentage change from PAF incubated cells. *p<0.05 compared to PAF using one-sample t test, followed by Sidak correction of p values.
Blood was collected from healthy volunteers and incubated with RvD2n-3 DPA, RvD5n-3 DPA (0.1 nM, 1 nM or 10 nM) or vehicle (PBS) for 15 min (37° C.) then with PAF (100 ng/ml; 30 min; 37° C.). Cell activation and leukocyte-platelet aggregates were assessed using flow cytometry. (A,B) Images depicting platelet monocyte (A) and (B) platelet-neutrophil aggregates. Results are representative of n=3 distinct experiments. (C,D) Cumulative neutrophil (C) CD11b and (D) CD62P expression. (E,F) Monocyte (E) CD11b and (F) CD62P expression. Results are mean of n=5 per condition and expressed as percentage change from PAF incubated cells. *p<0.05 compared to PAF using Wilcoxon Signed Rank Test. (G) Platelet rich plasma was incubated with vehicle (PBS) or RvD5n-3 DPA 0.1-10 nM (15 min; 37° C.) and PAF (100 nM; 30 min; 37° C.). Adhesion molecule expression evaluated using flow cytometry. Results are mean±s.e.m. n=5 healthy volunteers. * p, 0.05 compared to Vehicle group using Friedman's test followed by Dunn's multiple comparisons test.
(§1) After stimulation, samples were washed twice with PBS for 12 min at 800×g. Samples were stained for flow cytometry as described below.
(§2) Whole blood was incubated with lineage-specific markers for 45 min (4° C., in DPBS containing 0.02% BSA). The following anti-human antibodies were used: VioBlue-anti-CD41, PE-Cy5-anti-CD62P, Brilliant Violet 711-anti-CD11b, APC-Cy7-anti-CD16, Alexa Fluor 647-anti-CD14. After staining, red blood cells were lysed using Whole Blood Lysing Reagent Kit, according to the manufacturer's instructions. Data was collected using a flow cytometer and analysis was conducted using appropriate software.

[2] = tested on: Apo E^−/− mice; assay: Apo E−/− mice on western diet given RvD5n-3 DPA: blood leukocyte and platelet activation by flow cytometry; format: in vivo; details: 100 ng/mouse i.v., alternate days, 2 weeks; vs vehicle
Protocol: Mice (male and female) were fed a western diet for 6 weeks from 4 weeks of age and kept of a 12 h light dark cycle. At 8 weeks of age, mice were given RvD5n-3 DPA (100 ng/mouse; i.v.) or vehicle on alternate days for a 2-week period. Mice were culled, aortic arches were collected and stained using oil-red O as in Khambata R S et al. Anti-inflammatory actions of inorganic nitrate stabilize the atherosclerotic plaque. Proc Natt Acad Sci USA. 2017; 114(4):E550-E559, the contents of which are incorporated herein by reference. Staining intensity was determined using image processing software and expressed as relative units per mm^2. The descending aorta was collected, placed in ice-cold methanol and lipid mediators identified and quantified as described above.
In separate experiments blood was collected from Apo E^−/− mice using heparin-lined syringes via cardiac puncture. Cells were incubated with Fc-blocking IgG and anti-mouse CD11b-PE-Texas Red, CD62P-Brilliant Violet650™, CD115-Brilliant Violet 711™, and CD41-Brilliant Violet 510™ (Biolegend). for 45 minutes on ice. Red blood cells were lysed and fixed using Whole Blood Lysing Reagent Kit. Staining was then evaluated using a flow cytometer and analysis was conducted using appropriate software.

[3] = tested on: peripheral blood leukocytes and platelets from CVD patients; assay: CVD patient whole blood incubated with RvD2n-3 DPA or RvD5n-3 DPA then PAF, flow cytometry; format: cell-based, human; details: 15 min then PAF 30 min
Protocol: (§3) Whole blood was incubated with RvD2n-3 DPA or RvD5n-3 DPA (0.1 nM, 1 nM or 10 nM) or vehicle (PBS containing 0.01% EtOH) for 15 min then with PAF (100 ng/ml) for 30 min (37° C.). Expression of CD62P on (A) neutrophils (B) monocytes and CD11b on (C) neutrophils and (D) monocytes was investigated using flow cytometry and fluorescently labelled antibodies. Results are mean±s.em. and expressed as percentage of PAF incubated cells. n=9 patients per interval. * p<0.05 vs Veh group using one-sample t test, followed by Sidak correction of p values.
as §3, with “labeled” for “labelled”, “group.” for “interval.”, “PAF” for “Veh”, “Wilcoxon Signed Rank Test.” for “one-sample t test, followed by Sidak correction of p values.”
as §1, §2

CC/C=C\C[C@H](O)/C=C/C=C\C/C=C\C=C\[C@@H](O)CCCCCC(=O)O [RvD5n-3 DPA, 7,17-trihydroxy-8E,10,13,15E,19Z-docosapentaenoic acid]
leukocyte-platelet aggregates [1]: dose-dependent decreases
monocyte expression of CD11b ([1]; vs PAF alone): dose-dependent decreases
neutrophil CD11b expression ([1]; vs PAF alone): dose-dependent decreases
circulating platelet-monocyte aggregates (CD41 and CD62P expression on CD115 positive cells) [2]: reduced
monocyte activation, CD11b expression [2]: decrease
platelet-neutrophil aggregates and neutrophil activation [2]: significant reduction
reduction in neutrophil CD11b expression [2]: > 60%
expression of CD11b on monocytes [3]: decreased
expression of CD11b on neutrophils [3]: decreased
platelet-monocyte aggregates measured as CD62P and CD41 expression [3]: decreases
platelet-neutrophil aggregates measured as CD62P and CD41 expression [3]: decreases
